Here are results for 3 compounds from patent US20200239530A1, “COMPOUNDS AND METHODS OF MODULATING PROTEIN DEGRADATION” (Vividion Therapeutics, Inc., priority 2017, published 2020).

Like-named read-outs stand apart in the source and are kept apart here.

What all share (test): Competitive cysteine profiling, probe competition (Table 2B)
Holding throughout (format): binding

One test deals with T1, Q9C0C7 (Homo sapiens, UniProt Q9C0C7).
T1 construct: Cells were resuspended in cold PBS on ice and sonicated with a probe sonicator to achieve lysis; endogenous in cells
T1 sequence (Q9C0C7 1-1298): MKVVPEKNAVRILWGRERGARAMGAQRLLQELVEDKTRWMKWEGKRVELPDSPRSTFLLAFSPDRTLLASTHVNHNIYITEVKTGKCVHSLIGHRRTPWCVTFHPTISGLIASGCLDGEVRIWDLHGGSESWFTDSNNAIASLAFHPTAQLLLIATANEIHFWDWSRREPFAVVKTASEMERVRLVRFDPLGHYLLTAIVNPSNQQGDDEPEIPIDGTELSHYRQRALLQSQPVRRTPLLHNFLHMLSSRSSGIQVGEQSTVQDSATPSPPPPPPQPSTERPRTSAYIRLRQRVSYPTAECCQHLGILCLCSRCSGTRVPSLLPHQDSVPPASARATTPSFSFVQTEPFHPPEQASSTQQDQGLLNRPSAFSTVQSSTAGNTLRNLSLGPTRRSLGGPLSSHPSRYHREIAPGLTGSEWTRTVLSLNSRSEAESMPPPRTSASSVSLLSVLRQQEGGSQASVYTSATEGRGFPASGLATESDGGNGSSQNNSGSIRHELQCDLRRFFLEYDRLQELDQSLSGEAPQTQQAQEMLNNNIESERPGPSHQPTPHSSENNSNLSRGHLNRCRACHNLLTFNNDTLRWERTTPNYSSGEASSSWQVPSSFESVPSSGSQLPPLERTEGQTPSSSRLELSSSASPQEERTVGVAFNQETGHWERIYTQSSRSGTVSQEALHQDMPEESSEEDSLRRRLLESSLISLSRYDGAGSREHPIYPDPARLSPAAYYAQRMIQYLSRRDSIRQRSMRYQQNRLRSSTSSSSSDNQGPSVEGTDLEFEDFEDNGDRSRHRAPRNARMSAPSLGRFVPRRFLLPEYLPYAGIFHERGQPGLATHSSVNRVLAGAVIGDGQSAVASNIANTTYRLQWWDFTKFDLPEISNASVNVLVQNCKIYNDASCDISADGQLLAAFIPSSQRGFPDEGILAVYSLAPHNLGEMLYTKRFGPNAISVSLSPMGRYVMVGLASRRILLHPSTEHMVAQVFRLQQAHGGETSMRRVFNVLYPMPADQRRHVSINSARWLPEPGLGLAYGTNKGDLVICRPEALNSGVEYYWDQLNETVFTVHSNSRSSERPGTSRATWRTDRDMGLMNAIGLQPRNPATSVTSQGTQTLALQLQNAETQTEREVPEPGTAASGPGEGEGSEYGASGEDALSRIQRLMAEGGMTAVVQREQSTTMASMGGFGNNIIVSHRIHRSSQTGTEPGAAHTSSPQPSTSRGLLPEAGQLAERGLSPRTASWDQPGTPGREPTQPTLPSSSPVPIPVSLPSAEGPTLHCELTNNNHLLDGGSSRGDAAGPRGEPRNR
The text has this:
(§1) The following 96-well sample prep protocol was used for sample preparation.

A further test has as its target T2, Q96Q07 (Homo sapiens, UniProt Q96Q07).
T2 construct: 200 μL of lysate containing 5 mg/ml proteome was treated with 2 μL of 100× compound stock; endogenous in cells
T2 sequence (Q96Q07 1-612): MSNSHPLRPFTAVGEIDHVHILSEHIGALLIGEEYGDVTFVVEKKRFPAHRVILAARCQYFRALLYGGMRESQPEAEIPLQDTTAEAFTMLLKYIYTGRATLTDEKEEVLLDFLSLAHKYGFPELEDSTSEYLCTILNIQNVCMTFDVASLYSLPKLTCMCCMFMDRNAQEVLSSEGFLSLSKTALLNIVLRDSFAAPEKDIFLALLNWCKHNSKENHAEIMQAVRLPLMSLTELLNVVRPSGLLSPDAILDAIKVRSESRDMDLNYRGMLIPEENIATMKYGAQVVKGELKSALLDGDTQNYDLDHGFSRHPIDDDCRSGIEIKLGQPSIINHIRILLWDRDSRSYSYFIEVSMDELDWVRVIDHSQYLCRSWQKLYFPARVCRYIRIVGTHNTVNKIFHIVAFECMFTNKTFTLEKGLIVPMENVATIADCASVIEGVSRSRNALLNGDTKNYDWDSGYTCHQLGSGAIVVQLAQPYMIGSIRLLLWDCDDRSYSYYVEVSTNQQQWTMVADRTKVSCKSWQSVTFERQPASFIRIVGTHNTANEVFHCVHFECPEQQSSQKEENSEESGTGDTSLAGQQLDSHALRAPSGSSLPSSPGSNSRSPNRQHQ
Text: as §1

A further test has as its target T3, Q9H1A4 (Homo sapiens, UniProt Q9H1A4).
T3 construct: Cells were resuspended in cold PBS on ice and sonicated with a probe sonicator to achieve lysis; endogenous in cells
Text: as §1

The next test deals with T4, Q9Y297 (Homo sapiens, UniProt Q9Y297).
T4 construct: 200 μL of lysate containing 5 mg/ml proteome was treated with 2 μL of 100× compound stock; endogenous in cells
T4 sequence (Q9Y297 whole entry): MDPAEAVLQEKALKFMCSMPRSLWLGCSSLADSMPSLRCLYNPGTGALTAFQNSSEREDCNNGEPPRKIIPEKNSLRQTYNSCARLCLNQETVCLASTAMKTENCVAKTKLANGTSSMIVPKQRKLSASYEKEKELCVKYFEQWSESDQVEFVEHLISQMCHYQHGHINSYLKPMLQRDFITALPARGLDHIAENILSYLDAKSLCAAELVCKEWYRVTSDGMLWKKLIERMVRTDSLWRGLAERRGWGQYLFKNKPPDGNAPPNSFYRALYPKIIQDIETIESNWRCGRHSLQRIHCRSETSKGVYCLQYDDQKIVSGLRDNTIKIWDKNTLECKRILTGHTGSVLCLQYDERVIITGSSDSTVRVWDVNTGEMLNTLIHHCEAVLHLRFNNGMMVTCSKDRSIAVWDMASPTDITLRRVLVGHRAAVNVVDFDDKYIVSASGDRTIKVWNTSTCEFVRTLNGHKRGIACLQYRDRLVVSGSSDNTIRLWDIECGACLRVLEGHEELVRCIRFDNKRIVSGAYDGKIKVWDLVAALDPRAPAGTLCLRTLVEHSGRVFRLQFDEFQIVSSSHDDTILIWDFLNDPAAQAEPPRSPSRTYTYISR
Text: as §1

The mark [1] stands for this setting: read-out: KB02_100 uM_percent_inhibition.
Setting [2] is: read-out: KB05_100 uM_percent_inhibition.

T3 sequence (Q9H1A4 whole entry): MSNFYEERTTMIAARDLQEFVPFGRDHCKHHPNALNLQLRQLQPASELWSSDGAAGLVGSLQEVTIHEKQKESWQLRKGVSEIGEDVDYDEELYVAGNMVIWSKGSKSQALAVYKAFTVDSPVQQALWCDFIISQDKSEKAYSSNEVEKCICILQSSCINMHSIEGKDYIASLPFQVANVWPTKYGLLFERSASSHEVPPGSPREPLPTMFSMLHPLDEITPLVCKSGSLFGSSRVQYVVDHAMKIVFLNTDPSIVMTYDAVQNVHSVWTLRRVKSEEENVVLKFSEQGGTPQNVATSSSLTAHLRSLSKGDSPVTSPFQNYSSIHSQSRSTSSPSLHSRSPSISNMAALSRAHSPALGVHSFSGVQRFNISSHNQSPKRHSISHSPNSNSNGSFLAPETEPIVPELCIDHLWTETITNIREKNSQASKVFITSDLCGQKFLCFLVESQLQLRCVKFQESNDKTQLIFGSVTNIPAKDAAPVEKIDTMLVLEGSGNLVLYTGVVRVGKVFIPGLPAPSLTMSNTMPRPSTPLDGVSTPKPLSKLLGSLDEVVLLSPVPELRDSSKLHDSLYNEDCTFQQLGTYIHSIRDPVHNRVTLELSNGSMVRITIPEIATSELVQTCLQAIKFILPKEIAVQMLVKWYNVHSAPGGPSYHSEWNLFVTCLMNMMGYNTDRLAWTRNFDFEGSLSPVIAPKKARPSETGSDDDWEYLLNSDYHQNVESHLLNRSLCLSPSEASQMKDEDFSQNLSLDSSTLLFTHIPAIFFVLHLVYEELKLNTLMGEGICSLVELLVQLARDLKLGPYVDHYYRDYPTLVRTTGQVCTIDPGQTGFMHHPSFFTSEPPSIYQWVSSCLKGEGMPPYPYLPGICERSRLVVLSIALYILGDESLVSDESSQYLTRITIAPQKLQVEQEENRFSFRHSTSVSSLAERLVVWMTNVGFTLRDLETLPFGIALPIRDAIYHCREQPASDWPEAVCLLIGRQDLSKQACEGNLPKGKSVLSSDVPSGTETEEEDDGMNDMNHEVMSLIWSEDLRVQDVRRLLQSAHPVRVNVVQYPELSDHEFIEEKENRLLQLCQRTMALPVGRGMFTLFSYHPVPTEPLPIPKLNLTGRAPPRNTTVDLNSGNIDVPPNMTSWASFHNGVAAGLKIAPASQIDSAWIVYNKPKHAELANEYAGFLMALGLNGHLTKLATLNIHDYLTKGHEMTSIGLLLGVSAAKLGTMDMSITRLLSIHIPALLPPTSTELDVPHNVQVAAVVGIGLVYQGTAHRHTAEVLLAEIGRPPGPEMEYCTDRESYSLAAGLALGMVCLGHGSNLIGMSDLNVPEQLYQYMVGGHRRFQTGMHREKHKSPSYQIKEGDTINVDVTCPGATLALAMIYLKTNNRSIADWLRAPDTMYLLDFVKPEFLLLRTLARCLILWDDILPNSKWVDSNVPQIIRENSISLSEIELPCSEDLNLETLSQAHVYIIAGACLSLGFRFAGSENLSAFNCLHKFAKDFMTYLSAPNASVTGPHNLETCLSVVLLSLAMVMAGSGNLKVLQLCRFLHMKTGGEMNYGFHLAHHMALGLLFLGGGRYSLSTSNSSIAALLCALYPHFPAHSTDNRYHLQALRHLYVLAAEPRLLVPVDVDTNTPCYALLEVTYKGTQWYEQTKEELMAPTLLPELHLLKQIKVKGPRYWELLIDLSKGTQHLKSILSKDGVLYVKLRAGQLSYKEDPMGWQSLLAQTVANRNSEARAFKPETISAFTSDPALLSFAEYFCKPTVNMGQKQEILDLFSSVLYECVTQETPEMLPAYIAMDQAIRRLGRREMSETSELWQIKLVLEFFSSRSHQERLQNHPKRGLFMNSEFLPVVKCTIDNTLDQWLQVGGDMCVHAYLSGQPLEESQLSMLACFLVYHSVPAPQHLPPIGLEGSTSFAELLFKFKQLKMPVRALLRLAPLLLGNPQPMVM

For the compound `COc1ccc2c(c1)CCCN2C(=O)CCl` [KB02], the “KB02_100 uM_percent_inhibition” value on Q9C0C7 (100 uM) is given as 49%; on Q9H1A4 (100 uM), 21%. In addition, the results for the inhibition at 100 µM on Q9C0C7 (setting [1]) and on Q9H1A4 (setting [1]) were 48% and 24%, respectively. Also, the “KB02_500 uM_percent_inhibition” value on Q96Q07 (500 uM) amounted to 45%. Moreover, on Q96Q07 (read-out: KB02_500 uM_percent_inhibition), the inhibition at 500 µM stood at 54%.
With `C=CC(=O)N(c1ccccc1)c1ccc(Br)cc1` [KB05], the “KB05_100 uM_percent_inhibition” value at Q9C0C7 (100 uM) came to 25%. Besides, the inhibition at 100 µM on Q9C0C7 (setting [2]) stood at 23%; on Q9H1A4 (setting [2]), 29%; at Q9Y297 (setting [2]) it was 43%. The inhibition at 500 µM at Q96Q07 (read-out: KB05_500 uM_percent_inhibition) came to 65%.
Consider `O=C(CCl)Nc1cc(C(F)(F)F)cc(C(F)(F)F)c1` [KBO3], for which the “KB03_100 uM_percent_inhibition” value at Q9Y297 (100 uM) amounted to 54%.
